Experimental data from PubChem BioAssay AID977614 (Broad Institute, 2014).
The source made the active and inactive calls.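 Rule for the calls: active = parasite count per well reduced by over 3 SD from the mean, with host cell number above 80% of untreated; inactive = the rest.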

Tested on: L. donovani amastigotes in THP-1 macrophages, DAPI imaging, 72 h
Experiment: L. donovani intracellular amastigote growth inhibitors, imaging, THP-1 host macrophages, single concentration (AID 977614);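 note: signal is the parasite per host cell ratio from DAPI stained kinetoplasts and nuclei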

| Structure (SMILES) | AC50 |
| --- | --- |
| COc1ccc(NC(=O)N(C)C[C@H]2OCc3cnnn3CCCC(=O)N([C@@H](C)CO)C[C@@H]2C)c(OC)c1 | > 10 µM (inactive) |
| O=C(c1ccccc1F)N1C[C@H]2[C@@H](c3ccccc31)[C@@H](CO)N2Cc1ccc2c(c1)OCO2 | > 10 µM (inactive) |
| C[C@H](CO)N1C[C@H](C)[C@H](CN(C)C(=O)Nc2ccccc2C(F)(F)F)OCc2cnnn2CCCC1=O | > 10 µM (inactive) |
| CN(C[C@H]1N[C@@H](CO)[C@H]1c1ccc(-c2cccc(F)c2)cc1)C(=O)CC1CC1 | > 10 µM (inactive) |
| OC[C@@H]1[C@H]2c3ccccc3NC[C@H]2N1Cc1cccnc1 | > 10 µM (inactive) |
| CN(C[C@H]1[C@@H](c2ccccc2)[C@H](CO)N1Cc1ccccn1)S(C)(=O)=O | > 10 µM (inactive) |
| CCN(C[C@@H]1[C@@H](c2ccccc2)[C@H](CO)N1CC1CC1)C(=O)c1ccccn1 | > 10 µM (inactive) |
| COCC(=O)NC[C@@H]1[C@@H](c2ccccc2)[C@@H](CO)N1C(=O)c1ccccc1 | > 10 µM (inactive) |
| CCC(=O)N1C[C@H]2[C@@H](c3ccccc31)[C@@H](CO)N2C(=O)CC1CC1 | > 10 µM (inactive) |
| C[C@H]1CN([C@@H](C)CO)C(=O)CCCn2cc(nn2)CO[C@H]1CN(C)C(=O)Nc1cccc(C(F)(F)F)c1 | > 10 µM (inactive) |
| Cc1noc(C)c1S(=O)(=O)N(C)C[C@H]1OCc2cnnn2CCCC(=O)N([C@H](C)CO)C[C@@H]1C | > 10 µM (inactive) |
| O=C(C1CCOCC1)N1C[C@H]2[C@@H](c3ccccc31)[C@H](CO)N2C(=O)Nc1ccccc1F | > 10 µM (inactive) |
| C[C@@H]1CN([C@@H](C)CO)C(=O)CCCn2nncc2CO[C@H]1CN(C)Cc1ccc2cccnc2c1 | > 10 µM (inactive) |
| CCC(=O)N1[C@H](CO)[C@H](c2ccc(-c3cncnc3)cc2)[C@@H]1CN(C)C(C)=O | > 10 µM (inactive) |
| CCNC[C@@H]1[C@@H](c2ccc(-c3ccc(F)cc3)cc2)[C@@H](CO)N1C(=O)C1CC1 | > 10 µM (inactive) |
| CC(=O)N1[C@H](CO)[C@H](c2ccccc2)[C@@H]1CNC(=O)CN1CCOCC1 | > 10 µM (inactive) |
| C[C@H](CO)N1C[C@H](C)[C@H](CN(C)Cc2ccc3c(c2)OCCN3C)OCc2cnnn2CCCC1=O | > 10 µM (inactive) |
| COCCN(C[C@H]1N[C@H](CO)[C@@H]1c1ccccc1)C(=O)NC1CCCC1 | > 10 µM (inactive) |
| C/C=C/c1ccc([C@@H]2[C@@H](CO)N(C(C)=O)[C@H]2CNC(=O)c2ccccc2)cc1 | > 10 µM (inactive) |
| OC[C@@H]1[C@@H]2c3ccccc3NC[C@@H]2N1CC1CCOCC1 | > 10 µM (inactive) |
| C/C=C/c1ccc([C@H]2[C@@H](CO)N(S(=O)(=O)CC)[C@H]2CN(C)C(=O)CC)cc1 | > 10 µM (inactive) |
| CCC(=O)NC[C@H]1[C@@H](c2ccc(-c3ccc(C#N)cc3)cc2)[C@@H](CO)N1CCC(F)(F)F | > 10 µM (inactive) |
| C[C@H]1CN([C@@H](C)CO)C(=O)CCCn2cc(nn2)CO[C@H]1CN(C)C(=O)Nc1ccc2c(c1)OCO2 | > 10 µM (inactive) |
| O=C(Nc1cccc(F)c1)N1C[C@H]2[C@@H](c3ccccc31)[C@H](CO)N2C(=O)Cc1ccccn1 | > 10 µM (inactive) |
| COCC(=O)N1C[C@@H]2[C@H](c3ccccc31)[C@H](CO)N2C(=O)c1ccccc1F | > 10 µM (inactive) |
| COc1ccc(CN(C)C[C@@H]2OCc3cnnn3CCCC(=O)N([C@H](C)CO)C[C@@H]2C)cc1 | > 10 µM (inactive) |

| Structure (SMILES) | AC50 |
| --- | --- |
| O=C(NC[C@@H]1[C@H](c2ccccc2)[C@H](CO)N1Cc1ccccn1)C1CCCC1 | > 10 µM (inactive) |
| O=C(c1cnccn1)N1C[C@H]2[C@@H](c3ccccc31)[C@@H](CO)N2CC1CCCC1 | > 10 µM (inactive) |
| CCN(C[C@H]1[C@H](c2ccc(-c3cccnc3)cc2)[C@@H](CO)N1C(C)=O)C(C)=O | > 10 µM (inactive) |
| COc1cccc(NC(=O)N2[C@H](CO)[C@@H](c3ccccc3)[C@H]2CNCC(C)C)c1 | > 10 µM (inactive) |
| O=C(c1ccncc1)N1C[C@H]2[C@@H](c3ccccc31)[C@H](CO)N2Cc1ccccc1F | > 10 µM (inactive) |
| Cc1noc(C)c1NC(=O)N(C)C[C@@H]1OCc2cn(nn2)CCCC(=O)N([C@H](C)CO)C[C@H]1C | > 10 µM (inactive) |
| O=C(c1ccccc1F)N1C[C@@H]2[C@H](c3ccccc31)[C@@H](CO)N2C(=O)Nc1ccccc1 | > 10 µM (inactive) |
| O=C(Cc1ccccc1)N1C[C@@H]2[C@H](c3ccccc31)[C@H](CO)N2S(=O)(=O)c1ccccc1 | > 10 µM (inactive) |
| C[C@H](CO)N1C[C@H](C)[C@@H](CN(C)C(=O)CCC(F)(F)F)OCc2cn(nn2)CCCC1=O | > 10 µM (inactive) |
| C[C@H](CO)N1C[C@H](C)[C@@H](CN(C)S(=O)(=O)c2cn(C)cn2)OCc2cnnn2CCCC1=O | > 10 µM (inactive) |
| O=C(CC(F)(F)F)N1C[C@@H]2[C@H](c3ccccc31)[C@@H](CO)N2C(=O)C1CCCCC1 | > 10 µM (inactive) |
| C[C@H](CO)N1C[C@H](C)[C@H](CN(C)Cc2cccc3c2OCCCO3)OCc2cnnn2CCCC1=O | > 10 µM (inactive) |
| C[C@H](CO)N1C[C@H](C)[C@H](CN(C)C(=O)NC2CCCCC2)OCc2cn(nn2)CCCC1=O | > 10 µM (inactive) |
| O=C(CC(F)(F)F)N1C[C@H]2[C@@H](c3ccccc31)[C@@H](CO)N2CC1CCOCC1 | > 10 µM (inactive) |
| COc1ccc(C(=O)N2C[C@H]3[C@@H](c4ccccc42)[C@@H](CO)N3C(=O)Cc2ccccn2)cc1 | > 10 µM (inactive) |
| O=C(Nc1ccccc1Cl)N1C[C@H]2[C@@H](c3ccccc31)[C@@H](CO)N2C(=O)c1cccnc1 | > 10 µM (inactive) |
| C[C@@H]1CN([C@@H](C)CO)C(=O)CCCn2cc(nn2)CO[C@@H]1CN(C)C(=O)NC1CCCCC1 | > 10 µM (inactive) |
| COc1ccc(CN2[C@@H]3CN(C(=O)NC(C)C)c4ccccc4[C@@H]3[C@@H]2CO)cc1 | > 10 µM (inactive) |
| CC(=O)N1[C@H](CO)[C@H](c2ccccc2)[C@@H]1CN(C(=O)c1ccccc1F)C(C)C | > 10 µM (inactive) |
| O=C(NC[C@@H]1[C@@H](c2ccccc2)[C@H](CO)N1Cc1cccnc1)c1ccccn1 | > 10 µM (inactive) |
| CN1[C@H](CO)[C@H]2c3ccccc3NC[C@H]21 | > 10 µM (inactive) |
| CC(=O)N1[C@@H]2CN(C(=O)c3ccc(F)cc3)c3ccccc3[C@@H]2[C@@H]1CO | > 10 µM (inactive) |
| C[C@@H]1CN([C@H](C)CO)C(=O)CCCn2nncc2CO[C@H]1CN(C)C(=O)c1ccc2ccn(C)c2c1 | > 10 µM (inactive) |
| CC(=O)N1[C@H](CN(C)S(=O)(=O)c2ccccc2)[C@H](c2ccccc2)[C@@H]1CO | > 10 µM (inactive) |
| C[C@H](CO)N1C[C@H](C)[C@@H](CN(C)C(=O)Nc2ccc3c(c2)OCO3)OCc2cn(nn2)CCCC1=O | > 10 µM (inactive) |
| CCCNC(=O)N1C[C@@H]2[C@H](c3ccccc31)[C@@H](CO)N2C(=O)Nc1ccccc1F | > 10 µM (inactive) |

| Structure (SMILES) | AC50 |
| --- | --- |
| O=C(Nc1ccc(F)cc1)N1C[C@H]2[C@@H](c3ccccc31)[C@H](CO)N2C(=O)c1ccncc1 | > 10 µM (inactive) |
| CNC[C@H]1OCc2cnnn2CCCC(=O)N([C@@H](C)CO)C[C@H]1C | > 10 µM (inactive) |
| CC(=O)N1[C@H](CN(CC(C)C)C(=O)c2ccccn2)[C@H](c2ccccc2)[C@@H]1CO | > 10 µM (inactive) |
| C[C@@H]1CN([C@@H](C)CO)C(=O)CCCn2cc(nn2)CO[C@H]1CN(C)C(=O)Oc1ccc2ccccc2c1 | > 10 µM (inactive) |
| Cc1noc(C)c1NC(=O)N(C)C[C@@H]1OCc2cn(nn2)CCCC(=O)N([C@@H](C)CO)C[C@@H]1C | > 10 µM (inactive) |
| COCC(=O)NC[C@H]1[C@H](c2ccccc2)[C@@H](CO)N1C(=O)c1ccccc1 | > 10 µM (inactive) |
| C/C=C/c1ccc([C@@H]2[C@@H](CO)N[C@@H]2CN(CC)C(=O)CN2CCOCC2)cc1 | > 10 µM (inactive) |
| O=C(NC[C@H]1[C@H](c2ccccc2)[C@H](CO)N1C(=O)C1CCC1)NC1CCCC1 | > 10 µM (inactive) |
| CCC(=O)N(CC(C)C)C[C@@H]1[C@@H](c2ccccc2)[C@H](CO)N1C(=O)C1CCC1 | > 10 µM (inactive) |
| CN1C[C@@H]2[C@H](c3ccccc31)[C@H](CO)N2S(=O)(=O)c1ccccc1 | > 10 µM (inactive) |
| COc1cccc(C(=O)N2C[C@@H]3[C@H](c4ccccc42)[C@@H](CO)N3C(=O)c2cccc(F)c2)c1 | > 10 µM (inactive) |
| COCC(=O)N1[C@H](CO)[C@H](c2ccc(C#CC(C)C)cc2)[C@@H]1CNC(C)=O | > 10 µM (inactive) |
| C[C@H]1CN([C@@H](C)CO)C(=O)CCCn2nncc2CO[C@H]1CN(C)C(=O)Nc1cccc(Oc2ccccn2)c1 | > 10 µM (inactive) |
| CCCN1[C@H](CO)[C@H](c2ccc(-c3ccccc3F)cc2)[C@@H]1CNC(=O)C1CCC1 | > 10 µM (inactive) |
| C[C@@H]1CN([C@H](C)CO)C(=O)CCCn2cc(nn2)CO[C@H]1CN(C)C(=O)Nc1ccc2c(c1)OCO2 | > 10 µM (inactive) |
| CN(C[C@H]1[C@@H](c2ccc(C3=CCCC3)cc2)[C@@H](CO)N1CCC(F)(F)F)S(C)(=O)=O | > 10 µM (inactive) |
| C[C@@H]1CN([C@@H](C)CO)C(=O)CCCn2cc(nn2)CO[C@H]1CN(C)Cc1ccccc1 | > 10 µM (inactive) |
| OC[C@H]1[C@@H]2c3ccccc3NC[C@@H]2N1CC1CCOCC1 | > 10 µM (inactive) |
| C/C=C/c1ccc([C@@H]2[C@H](CO)N[C@H]2CN(CC(C)C)C(=O)c2ccccn2)cc1 | > 10 µM (inactive) |
| CCN(C[C@H]1[C@H](c2ccccc2)[C@@H](CO)N1S(C)(=O)=O)C(=O)C1CCCC1 | > 10 µM (inactive) |
| COc1ccccc1C(=O)N1C[C@H]2[C@@H](c3ccccc31)[C@H](CO)N2C(=O)Cc1ccccc1 | > 10 µM (inactive) |
| C[C@@H]1CN([C@@H](C)CO)C(=O)CCCn2nncc2CO[C@@H]1CN(C)Cc1cccc2c1OCCCO2 | > 10 µM (inactive) |
| N#Cc1cccc(-c2ccc([C@H]3[C@@H](CO)N[C@@H]3CNC(=O)C3CCC3)cc2)c1 | > 10 µM (inactive) |
| C/C=C/c1ccc([C@H]2[C@@H](CNC(=O)NC(C)C)N(C(=O)C3CC3)[C@H]2CO)cc1 | > 10 µM (inactive) |
| C[C@@H]1CN([C@H](C)CO)C(=O)CCCn2nncc2CO[C@@H]1CN(C)Cc1ccc(C(=O)Nc2ccccc2N)cc1 | > 10 µM (inactive) |
